Laboratory results reported in US20210380606A1, “5-AZAINDAZOLE DERIVATIVES AS ADENOSINE RECEPTOR ANTAGONISTS” (Merck Patent GmbH, priority 2018, published 2021).
Read-outs that look alike come from different tables or passages of the source.

Assays:
human A2A receptors = biological target: T1, human A2A receptors (Homo sapiens, UniProt P29274); assay: Functional human A2A receptor activity, recombinant HEK293 cells, cAMP (HTRF); format: cell-based; conditions: read-out: A2A (Category)
T1 construct: expressed in transfected cells; host or cells: HEK293
Outline: (§1)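 15 min incubation → HTRF cAMP reagents added → cellular cAMP read on plate reader. cAMP serves as adenosine receptor second messenger.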

human A2B receptors = biological target: T2, human A2B receptors (Homo sapiens, UniProt P29275); assay: Functional human A2B receptor activity, recombinant HEK293 cells, cAMP (HTRF); format: cell-based; conditions: read-out: A2B (Category)
T2 construct: expressed in transfected cells; host or cells: HEK293
T2 sequence (P29275 1-332): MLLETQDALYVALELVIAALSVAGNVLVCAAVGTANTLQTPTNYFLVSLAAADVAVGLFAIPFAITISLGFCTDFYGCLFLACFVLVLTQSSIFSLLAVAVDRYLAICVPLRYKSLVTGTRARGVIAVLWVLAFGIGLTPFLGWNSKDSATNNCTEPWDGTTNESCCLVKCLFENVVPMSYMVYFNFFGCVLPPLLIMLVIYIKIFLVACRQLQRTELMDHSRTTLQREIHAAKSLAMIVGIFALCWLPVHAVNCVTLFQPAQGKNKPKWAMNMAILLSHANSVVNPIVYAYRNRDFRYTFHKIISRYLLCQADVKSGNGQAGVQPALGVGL
Outline: as §1

[1] = recombinant HEK293 cells expressing human A2A receptor, agonist NECA, cAMP HTRF, 15 min incubation
[2] = recombinant HEK293 cells expressing human A2B receptor, agonist NECA, cAMP HTRF, 15 min incubation

T1 sequence (P29274 whole entry): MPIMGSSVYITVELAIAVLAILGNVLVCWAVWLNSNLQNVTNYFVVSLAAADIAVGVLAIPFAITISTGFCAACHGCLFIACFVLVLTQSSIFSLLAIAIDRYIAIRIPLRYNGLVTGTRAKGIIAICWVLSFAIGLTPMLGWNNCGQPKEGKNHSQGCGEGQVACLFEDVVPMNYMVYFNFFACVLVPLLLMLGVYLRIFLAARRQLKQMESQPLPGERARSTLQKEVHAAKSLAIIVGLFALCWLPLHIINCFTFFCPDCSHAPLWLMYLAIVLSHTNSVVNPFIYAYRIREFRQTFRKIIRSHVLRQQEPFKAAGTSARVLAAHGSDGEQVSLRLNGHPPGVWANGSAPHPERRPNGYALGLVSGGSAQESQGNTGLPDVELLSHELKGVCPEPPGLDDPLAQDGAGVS

| IC50 (human A2A receptors) [nM] | IC50 (human A2B receptors) [nM] | SMILES | IC50 (human A2A receptors; [1]) [nM] | IC50 (human A2B receptors; [2]) [nM] |
| --- | --- | --- | --- | --- |
| < 100 | < 100 | O=C(c1cc2c(cn1)c(-c1coc3ccc(F)cc13)nn2CC(F)(F)F)N1CCCC(O)CC1 (centres unmarked) [Compound 122, [3-(5-fluorobenzofuran-3-yl)-1-(2,2,2-trifluoroethyl)pyrazolo[4,3-c]pyridin-6-yl]-(4-hydroxyazepan-1-yl)methanone] |  |  |
| < 100 | < 100 | O=C(c1cc2c(cn1)c(-c1coc3ccccc13)nn2CC(F)(F)F)N1CCCOCC1 [Compound 94, [3-Benzofuran-3-yl-1-(2,2,2-trifluoro-ethyl)-1H-pyrazolo[4,3-c]pyridine-6-yl]-1,4-oxazepan-4-yl-methanone] |  |  |
| < 100 | < 1000 | Cn1nc(-c2cnc3ccc(F)cn23)c2cnc(C(=O)N3CCCCCC3)cc21 [Compound 41, Azepan-1-yl-[3-(6-fluoro-imidazo[1,2-a]pyridin-3-yl)-1-methyl-1H-pyrazolo[4,3-c]pyridin-6-yl]-methanone] |  |  |
| < 100 | < 1000 | Cc1oc2ccccc2c1-c1nn(CC(F)(F)F)c2cc(C(=O)N3CCCOCC3)ncc12 [Compound 126, [3-(2-methylbenzofuran-3-yl)-1-(2,2,2-trifluoroethyl)pyrazolo[4,3-c]pyridin-6-yl]-(1,4-oxazepan-4-yl)methanone] |  |  |
| < 100 | < 1000 | O=C(c1cc2c(cn1)c(-c1cnc3c(F)cc(F)cn13)nn2CC(F)(F)F)N1CCCC(CO)C1 (centres unmarked) [Compound 161, [3-(6,8-Difluoro-imidazo[1,2-a]pyridin-3-yl)-1-(2,2,2-trifluoro-ethyl)-1H-pyrazolo[4,3-c]pyridin-6-yl]-(3-hydroxymethyl-piperidin-1-yl)-methanone] |  |  |
| < 100 | < 100 | O=C(c1cc2c(cn1)c(-c1coc3ccc(F)cc13)nn2CC(F)(F)F)N1CCC(O)CC1 [Compound 115, [3-(5-fluorobenzofuran-3-yl)-1-(2,2,2-trifluoroethyl)pyrazolo[4,3-c]pyridin-6-yl]-(4-hydroxy-1-piperidyl)methanone] |  |  |
| < 100 | < 1000 | O=C(c1cc2c(cn1)c(-c1cnc3c(F)cc(F)cn13)nn2CC(F)(F)F)N1CC2CCC(C1)C2O (stereo not drawn) [Compound 170, [3-(6,8-Difluoro-imidazo[1,2-a]pyridin-3-yl)-1-(2,2,2-trifluoro-ethyl)-1H-pyrazolo[4,3-c]pyridin-6-yl]-(8-exo-hydroxy-3-aza-bicyclo[3.2.1]oct-3-yl)-methanone] |  |  |
| < 1000 | < 1000 | O=C(c1cc2c(cn1)c(-c1cnc3c(F)cc(F)cn13)nn2CC(F)(F)F)N1CCC(O)(C(F)(F)F)CC1 [Compound 148, [3-(6,8-Difluoro-imidazo[1,2-a]pyridin-3-yl)-1-(2,2,2-trifluoro-ethyl)-1H-pyrazolo[4,3-c]pyridin-6-yl]-(4-hydroxy-4-trifluoromethyl-piperidin-1-yl)-methanone] |  |  |
| < 100 | < 1000 | O=C(c1cc2c(cn1)c(-c1cnn3ccncc13)nn2CC(F)(F)F)N1CCCCCC1 [Compound 248, Azepan-1-yl-[3-pyrazolo[1,5-a]pyrazin-3-yl-1-(2,2,2-trifluoro-ethyl)-1H-pyrazolo[4,3-c]pyridin-6-yl]-methanone] |  |  |
| < 100 | < 1000 | O=C(c1cc2c(cn1)c(-c1cnc3ccc(Cl)cn13)nn2CC(F)(F)F)N1CCCCCC1 [Compound 48, Azepan-1-yl-[3-(6-chloro-imidazo[1,2-a]pyridin-3-yl)-1-(2,2,2-trifluoro-ethyl)-1H-pyrazolo[4,3-c]pyridin-6-yl]-methanone] |  |  |
| < 100 | < 100 | CS(=O)(=O)Cn1nc(-c2cnc3ccc(F)cn23)c2cnc(C(=O)N3CCCCCC3)cc21 [Compound 20, Azepan-1-yl-[3-(6-fluoro-imidazo[1,2-a]pyridin-3-yl)-1-methanesulfonylmethyl-1H-pyrazolo[4,3-c]pyridin-6-yl]-methanone] |  |  |
| < 100 | < 1000 | O=C(c1cc2c(cn1)c(-c1cnc3c(F)cc(F)cn13)nn2CC(F)(F)F)N1CC2CC1CO2 (centres unmarked) [Compound 135, [3-(6,8-Difluoro-imidazo[1,2-a]pyridin-3-yl)-1-(2,2,2-trifluoro-ethyl)-1H-pyrazolo[4,3-c]pyridin-6-yl]-(2-oxa-5-aza-bicyclo[2.2.1]hept-5-yl)-methanone] |  |  |

The remaining lines, values behind:

| SMILES | IC50 (human A2A receptors) [nM] | IC50 (human A2B receptors) [nM] | IC50 (human A2A receptors; [1]) [nM] | IC50 (human A2B receptors; [2]) [nM] |
| --- | --- | --- | --- | --- |
| NC(=O)c1ccc2occ(-c3nn(CC(F)(F)F)c4cc(C(=O)N5CCCOCC5)ncc34)c2c1 [Compound 237, 3-[6-(1,4-oxazepane-4-carbonyl)-1-(2,2,2-trifluoroethyl)pyrazolo[4,3-c]pyridin-3-yl]benzofuran-5-carboxamide] | < 100 | < 1000 |  |  |
| [2H]C1([2H])COCCN(C(=O)c2cc3c(cn2)c(-c2cnn4ccccc24)nn3CC(F)(F)F)C1 [Compound 121, (6,6-dideuterio-1,4-oxazepan-4-yl)-[3-pyrazolo[1,5-a]pyridin-3-yl-1-(2,2,2-trifluoroethyl)pyrazolo[4,3-c]pyridin-6-yl]methanone] | < 100 | < 100 |  |  |
| O=C(c1cc2c(cn1)c(-c1c[nH]c3ccccc13)nn2CC(F)(F)F)N1[C@@H]2CC[C@H]1C[C@@H](O)C2 [Compound 112, (3-endo-hydroxy-8-azabicyclo[3.2.1]octan-8-yl)-[3-(1H-indol-3-yl)-1-(2,2,2-trifluoroethyl)pyrazolo[4,3-c]pyridin-6-yl]methanone] | < 100 | < 100 |  |  |
| O=C(c1cc2c(cn1)c(-c1coc3ccccc13)nn2CC(F)(F)F)N1CCCC(O)CC1 (centres unmarked) [Compound 228, [3-(benzofuran-3-yl)-1-(2,2,2-trifluoroethyl)pyrazolo[4,3-c]pyridin-6-yl]-(4-hydroxyazepan-1-yl)methanone] | < 100 | < 100 |  |  |
| O=C(c1cc2c(cn1)c(-c1cnn3ccccc13)nn2CC(F)(F)F)N1CCC(O)CC1 [Compound 114, (4-hydroxy-1-piperidyl)-[3-pyrazolo[1,5-a]pyridin-3-yl-1-(2,2,2-trifluoroethyl)pyrazolo[4,3-c]pyridin-6-yl]methanone] | < 100 | < 100 |  |  |
| O=C(c1cc2c(cn1)c(-c1cnc3c(F)cc(F)cn13)nn2CC(F)(F)F)N1CC2CCC(C1)C2O (stereo not drawn) [Compound 187, [3-(6,8-Difluoro-imidazo[1,2-a]pyridin-3-yl)-1-(2,2,2-trifluoro-ethyl)-1H-pyrazolo[4,3-c]pyridin-6-yl]-(8-endo-hydroxy-3-aza-bicyclo[3.2.1]oct-3-yl)-methanone] |  |  | < 100 | < 1000 |
| [2H]C1([2H])COCCN(C(=O)c2cc3c(cn2)c(-c2coc4ccccc24)nn3CC(F)(F)F)C1 [Compound 229, [3-(benzofuran-3-yl)-1-(2,2,2-trifluoroethyl)pyrazolo[4,3-c]pyridin-6-yl]-(6,6-dideuterio-1,4-oxazepan-4-yl)methanone] | < 100 | < 100 |  |  |
| O=C(c1cc2c(cn1)c(-c1coc3ccccc13)nn2CCF)N1[C@@H]2CC[C@H]1C[C@@H](O)C2 [Compound 221, [3-Benzofuran-3-yl-1-(2-fluoro-ethyl)-1H-pyrazolo[4,3-c]pyridin-6-yl]-(3-endo-hydroxy-8-aza-bicyclo[3.2.1]oct-8-yl)-methanone] | < 100 | < 100 |  |  |
| CC(C)(C)OC(=O)N1CC2CC1CN2C(=O)c1cc2c(cn1)c(-c1cnc3c(F)cc(F)cn13)nn2CC(F)(F)F (centres unmarked) [Compound 194, 5-[3-(6,8-Difluoro-imidazo[1,2-a]pyridin-3-yl)-1-(2,2,2-trifluoro-ethyl)-1H-pyrazolo[4,3-c]pyridine-6-carbonyl]-2,5-diaza-bicyclo[2.2.1]heptane-2-carboxylic Acid Tert-Butyl Ester] | < 100 | < 100 |  |  |
| O=C(c1cc2c(cn1)c(-c1cnc3c(F)cc(F)cn13)nn2CC(F)(F)F)N1C2CCC1CC(O)C2 (stereo not drawn) [Compound 171, [3-(6,8-Difluoro-imidazo[1,2-a]pyridin-3-yl)-1-(2,2,2-trifluoro-ethyl)-1H-pyrazolo[4,3-c]pyridin-6-yl]-(3-exo-hydroxy-8-aza-bicyclo[3.2.1]oct-8-yl)-methanone] |  |  | < 100 | < 1000 |
| O=C(c1cc2c(cn1)c(-c1coc3ccccc13)nn2CC(F)(F)F)N1CCCC(F)(F)C1 [Compound 226, [3-(benzofuran-3-yl)-1-(2,2,2-trifluoroethyl)pyrazolo[4,3-c]pyridin-6-yl]-(3,3-difluoro-1-piperidyl)methanone] | < 100 | < 1000 |  |  |
| CC1(O)CCN(C(=O)c2cc3c(cn2)c(-c2coc4ccccc24)nn3CC(F)(F)F)CC1 [Compound 208, [3-Benzofuran-3-yl-1-(2,2,2-trifluoro-ethyl)-1H-pyrazolo[4,3-c]pyridin-6-yl]-(4-hydroxy-4-methyl-piperidin-1-yl)-methanone] | < 100 | < 100 |  |  |
| O=C(c1cc2c(cn1)c(-c1cnc3c(F)cc(F)cn13)nn2CC(F)(F)F)N1CC2CC3CC(C2)CC1C3 [Compound 169, (4-Aza-tricyclo[4.3.1.1*3,8*]undec-4-yl)-[3-(6,8-difluoro-imidazo[1,2-a]pyridin-3-yl)-1-(2,2,2-trifluoro-ethyl)-1H-pyrazolo[4,3-c]pyridin-6-yl]-methanone] | < 100 | < 100 |  |  |
